Results taken from ChEMBL document CHEMBL3885881, “DrugMatrix”.

Species on record: Rattus norvegicus
Type: toxicity, organism-based, Sprague-Dawley
Settings: in vivo, po, route oral GAVAGE, vehicle 100 % SALINE; for ABSOLUTE EOSINOPHIL / ABSOLUTE LYMPHOCYTE / ABSOLUTE MONOCYTE / ABSOLUTE SEGMENTED NEUTROPHIL / BASOPHIL / EOSINOPHIL / ERYTHROCYTE COUNT / HEMATOCRIT / HEMOGLOBIN / LEUKOCYTE COUNT / LYMPHOCYTE / MEAN CORPUSCULAR HEMOGLOBIN / MEAN CORPUSCULAR HEMOGLOBIN CONCENTRATION / MEAN CORPUSCULAR VOLUME / MONOCYTE / NEUTROPHIL / NUCLEATED RED BLOOD CELLS / PLATELET COUNT: tissue Blood; for ALANINE AMINOTRANSFERASE / ALBUMIN / ALKALINE PHOSPHATASE / ASPARTATE AMINOTRANSFERASE / BLOOD UREA NITROGEN / CARBON DIOXIDE / CHLORIDE / CHOLESTEROL / CREATINE PHOSPHOKINASE / CREATININE / GLUCOSE / LACTATE DEHYDROGENASE / LIPASE / PHOSPHORUS / POTASSIUM / SODIUM / TOTAL BILIRUBIN / TOTAL PROTEIN / URIC ACID: tissue Plasma
[1] = 3000 mg/kg, 24 h, dose level Low, time 1 day
[2] = 6000 mg/kg, 6 h, dose level High, time 0.25 day
[3] = 6000 mg/kg, 24 h, dose level High, time 1 day

Description: DrugMatrix - Regimen: Single

SMILES: CCO [ALCOHOL]
- ABSOLUTE EOSINOPHIL [1]: 30.5 CELLS/uL
- ABSOLUTE LYMPHOCYTE [1]: 9902 CELLS/uL
- ABSOLUTE MONOCYTE [1]: 124.33 CELLS/uL
- ABSOLUTE SEGMENTED NEUTROPHIL [1]: 1059.83 CELLS/uL
- BASOPHIL [1]: 0%
- EOSINOPHIL [1]: 0.17%
- ERYTHROCYTE COUNT [1]: 5.39 x10E6/uL
- HEMATOCRIT [1]: 34.67%
- HEMOGLOBIN [1]: 13.7 G/DL
- LEUKOCYTE COUNT [1]: 11.12 x10E3/uL
- LYMPHOCYTE [1]: 88.17%
- MEAN CORPUSCULAR HEMOGLOBIN [1]: 25.42 pg
- MEAN CORPUSCULAR HEMOGLOBIN CONCENTRATION [1]: 39.57 G/DL
- MEAN CORPUSCULAR VOLUME [1]: 64.33 fL
- MONOCYTE [1]: 1.17%
- NEUTROPHIL [1]: 10.5%
- NUCLEATED RED BLOOD CELLS [1]: 0 /100WBC
- PLATELET COUNT [1]: 1071.33 x10E3/uL
- ALANINE AMINOTRANSFERASE [1]: 70.67 u/L
- ALBUMIN [1]: 4.18 G/DL
- ALKALINE PHOSPHATASE [1]: 267 u/L
- ASPARTATE AMINOTRANSFERASE [1]: 95.33 u/L
- BLOOD UREA NITROGEN [1]: 11.67 mg/dL
- CARBON DIOXIDE [1]: 35.67 mmol/L
- CHLORIDE [1]: 99.5 MEQ/L
- CHOLESTEROL [1]: 80.17 mg/dL
- CREATINE PHOSPHOKINASE [1]: 199.5 u/L
- CREATININE [1]: 0.21 mg/dL
- GLUCOSE [1]: 141 mg/dL
- LACTATE DEHYDROGENASE [1]: 59.67 u/L
- LIPASE [1]: 9.67 u/L
- PHOSPHORUS [1]: 10.12 mg/dL
- POTASSIUM [1]: 5.58 MEQ/L
- SODIUM [1]: 145.6 MEQ/L
- TOTAL BILIRUBIN [1]: 0.17 mg/dL
- TOTAL PROTEIN [1]: 6.1 G/DL
- URIC ACID [1]: 0.45 mg/dL
- ABSOLUTE EOSINOPHIL [2]: 29.17 CELLS/uL
- ABSOLUTE LYMPHOCYTE [2]: 14165.5 CELLS/uL
- ABSOLUTE MONOCYTE [2]: 257.5 CELLS/uL
- ABSOLUTE SEGMENTED NEUTROPHIL [2]: 3164.5 CELLS/uL
- BASOPHIL [2]: 0%
- EOSINOPHIL [2]: 0.17%
- ERYTHROCYTE COUNT [2]: 5.58 x10E6/uL
- HEMATOCRIT [2]: 37.53%
- HEMOGLOBIN [2]: 13.8 G/DL
- LEUKOCYTE COUNT [2]: 17.62 x10E3/uL
- LYMPHOCYTE [2]: 81.33%
- MEAN CORPUSCULAR HEMOGLOBIN [2]: 24.78 pg
- MEAN CORPUSCULAR HEMOGLOBIN CONCENTRATION [2]: 36.83 G/DL
- MEAN CORPUSCULAR VOLUME [2]: 67.33 fL
- MONOCYTE [2]: 1.33%
- NEUTROPHIL [2]: 17.17%
- NUCLEATED RED BLOOD CELLS [2]: 0 /100WBC
- PLATELET COUNT [2]: 1061.5 x10E3/uL
- ALANINE AMINOTRANSFERASE [2]: 46 u/L
- ALBUMIN [2]: 3.8 G/DL
- ALKALINE PHOSPHATASE [2]: 242.17 u/L
- ASPARTATE AMINOTRANSFERASE [2]: 95.83 u/L
- BLOOD UREA NITROGEN [2]: 12.33 mg/dL
- CARBON DIOXIDE [2]: 17.17 mmol/L
- CHLORIDE [2]: 105.33 MEQ/L
- CHOLESTEROL [2]: 77 mg/dL
- CREATINE PHOSPHOKINASE [2]: 431.5 u/L
- CREATININE [2]: 0.13 mg/dL
- GLUCOSE [2]: 194.5 mg/dL
- LACTATE DEHYDROGENASE [2]: 355.33 u/L
- LIPASE [2]: 9.33 u/L
- PHOSPHORUS [2]: 16.82 mg/dL
- POTASSIUM [2]: 5.94 MEQ/L
- SODIUM [2]: 144.57 MEQ/L
- TOTAL BILIRUBIN [2]: 0.0667 mg/dL
- TOTAL PROTEIN [2]: 5.12 G/DL
- URIC ACID [2]: 2.45 mg/dL
- ABSOLUTE EOSINOPHIL [3]: 0 CELLS/uL
- ABSOLUTE LYMPHOCYTE [3]: 13674.83 CELLS/uL
- ABSOLUTE MONOCYTE [3]: 258.33 CELLS/uL
- ABSOLUTE SEGMENTED NEUTROPHIL [3]: 983.5 CELLS/uL
- BASOPHIL [3]: 0%
- EOSINOPHIL [3]: 0%
- ERYTHROCYTE COUNT [3]: 5.27 x10E6/uL
- HEMATOCRIT [3]: 34.4%
- HEMOGLOBIN [3]: 13.68 G/DL
- LEUKOCYTE COUNT [3]: 14.92 x10E3/uL
- LYMPHOCYTE [3]: 91.33%
- MEAN CORPUSCULAR HEMOGLOBIN [3]: 26.03 pg
- MEAN CORPUSCULAR HEMOGLOBIN CONCENTRATION [3]: 39.82 G/DL
- MEAN CORPUSCULAR VOLUME [3]: 65.33 fL
- MONOCYTE [3]: 1.83%
- NEUTROPHIL [3]: 6.83%
- NUCLEATED RED BLOOD CELLS [3]: 0 /100WBC
- PLATELET COUNT [3]: 1124.67 x10E3/uL
- ALANINE AMINOTRANSFERASE [3]: 81 u/L
- ALBUMIN [3]: 3.95 G/DL
- ALKALINE PHOSPHATASE [3]: 284.5 u/L
- ASPARTATE AMINOTRANSFERASE [3]: 90.67 u/L
- BLOOD UREA NITROGEN [3]: 11.5 mg/dL
- CARBON DIOXIDE [3]: 32.5 mmol/L
- CHLORIDE [3]: 100.67 MEQ/L
- CHOLESTEROL [3]: 68.83 mg/dL
- CREATINE PHOSPHOKINASE [3]: 207.83 u/L
- CREATININE [3]: 0.3 mg/dL
- GLUCOSE [3]: 144 mg/dL
- LACTATE DEHYDROGENASE [3]: 74 u/L
- LIPASE [3]: 9 u/L
- PHOSPHORUS [3]: 10.7 mg/dL
- POTASSIUM [3]: 5.34 MEQ/L
- SODIUM [3]: 145 MEQ/L
- TOTAL BILIRUBIN [3]: 0.15 mg/dL
- TOTAL PROTEIN [3]: 5.78 G/DL
- URIC ACID [3]: 0.53 mg/dL
